The text below walks through data of patent US20090018134A1, “Compounds - 945” (AstraZeneca AB, priority 2007, published 2009).

T1 sequence (P42345 1362-2549): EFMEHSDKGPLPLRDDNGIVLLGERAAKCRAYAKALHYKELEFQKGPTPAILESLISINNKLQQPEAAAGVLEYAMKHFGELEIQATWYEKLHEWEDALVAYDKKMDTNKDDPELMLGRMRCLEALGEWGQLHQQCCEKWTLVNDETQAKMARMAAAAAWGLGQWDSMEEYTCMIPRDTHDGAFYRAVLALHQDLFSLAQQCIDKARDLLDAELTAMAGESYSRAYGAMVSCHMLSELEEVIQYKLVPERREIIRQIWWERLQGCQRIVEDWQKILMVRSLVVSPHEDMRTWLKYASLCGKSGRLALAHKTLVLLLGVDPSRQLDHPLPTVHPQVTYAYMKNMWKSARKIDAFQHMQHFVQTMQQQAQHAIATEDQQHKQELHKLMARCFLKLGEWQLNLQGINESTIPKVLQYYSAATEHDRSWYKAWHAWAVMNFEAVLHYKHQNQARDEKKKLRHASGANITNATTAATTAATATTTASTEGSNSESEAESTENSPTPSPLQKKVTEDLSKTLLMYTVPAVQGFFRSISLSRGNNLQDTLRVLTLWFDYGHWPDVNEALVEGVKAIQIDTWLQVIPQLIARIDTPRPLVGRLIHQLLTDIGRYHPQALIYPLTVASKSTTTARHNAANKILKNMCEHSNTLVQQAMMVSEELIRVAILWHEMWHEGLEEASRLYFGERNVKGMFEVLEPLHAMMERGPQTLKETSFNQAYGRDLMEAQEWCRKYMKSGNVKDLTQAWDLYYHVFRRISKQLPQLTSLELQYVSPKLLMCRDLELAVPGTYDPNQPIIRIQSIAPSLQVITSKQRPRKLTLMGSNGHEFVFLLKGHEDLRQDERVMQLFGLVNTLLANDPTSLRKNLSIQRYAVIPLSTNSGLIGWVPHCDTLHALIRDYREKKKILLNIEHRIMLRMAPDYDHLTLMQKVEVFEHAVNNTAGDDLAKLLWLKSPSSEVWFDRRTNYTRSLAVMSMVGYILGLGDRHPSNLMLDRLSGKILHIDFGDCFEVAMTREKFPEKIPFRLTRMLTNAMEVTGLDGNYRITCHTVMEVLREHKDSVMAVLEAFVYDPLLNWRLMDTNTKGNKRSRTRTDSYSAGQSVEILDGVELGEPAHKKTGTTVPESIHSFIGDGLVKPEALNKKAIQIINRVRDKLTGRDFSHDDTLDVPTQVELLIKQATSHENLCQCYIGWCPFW

This test concerns the target T1, mTOR (Homo sapiens, UniProt P42345).
T1 construct: FLAG; made in house
As to the kind of experiment: In Vitro mTOR Kinase Assay (Echo), Test (a)(ii). The test is classed as biochemical. The conditions noted are these: table of enzyme assay Test (a)(ii); read-out: Test (a)(ii) IC50. Put shortly: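 FLAG-tagged human mTOR truncation (residues 1362-2549) expressed in HEK293 cells and FLAG-purified. Compounds dispensed acoustically, reaction 2 h at room temperature, stopped with EDTA. Phosphorylation of biotinylated peptide detected by AlphaScreen with anti-p70 S6K (T389) antibody overnight; IC50 reported.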
A word on the IC50: it is the concentration that gives 50% inhibition. In the case of `C[C@H]1COCCN1c1cc(C2(S(=O)(=O)c3ccncc3)CCC2)nc(-c2ccc(NC(=O)NCc3ncc[nH]3)cc2)n1` [Example 83d, 3-(1H-imidazol-2-ylmethyl)-1-[4-[4-[(3S)-3-methylmorpholin-4-yl]-6-(1-pyridin-4-ylsulfonylcyclobutyl)pyrimidin-2-yl]phenyl]urea], the IC50 came to 47.2 nM.
Next, `CC[C@H]1COCCN1c1cc(C2(S(C)(=O)=O)CC2)nc(-c2ccc(NC(=O)NC)cc2)n1` [Example 84, 1-[4-[4-[(3S)-3-Ethylmorpholin-4-yl]-6-(1-methylsulfonylcyclopropyl)pyrimidin-2-yl]phenyl]-3-methylurea]: 9.56 nM; `CC[C@H]1COCCN1c1cc(C2(S(C)(=O)=O)CC2)nc(-c2ccc(NC(=O)NC3CC3)cc2)n1` [Example 84a, 3-cyclopropyl-1-[4-[4-[(3S)-3-ethylmorpholin-4-yl]-6-(1-methylsulfonylcyclopropyl)pyrimidin-2-yl]phenyl]urea]: 9.09 nM; `CC[C@H]1COCCN1c1cc(C2(S(C)(=O)=O)CC2)nc(-c2ccc(NC(=O)NCCO)cc2)n1` [Example 84b, 1-[4-[4-[(3S)-3-ethylmorpholin-4-yl]-6-(1-methylsulfonylcyclopropyl)pyrimidin-2-yl]phenyl]-3-(2-hydroxyethyl)urea]: 3.85 nM.
As for `CC[C@H]1COCCN1c1cc(C2(S(C)(=O)=O)CC2)nc(-c2ccc(NC(=O)NCCF)cc2)n1` [Example 84c, 1-[4-[4-[(3S)-3-ethylmorpholin-4-yl]-6-(1-methylsulfonylcyclopropyl)pyrimidin-2-yl]phenyl]-3-(2-fluoroethyl)urea], the figure is 8.29 nM; as for `CC[C@H]1COCCN1c1cc(C2(S(C)(=O)=O)CC2)nc(-c2ccc(NC(=O)NCC(F)F)cc2)n1` [Example 84d, 3-(2,2-difluoroethyl)-1-[4-[4-[(3S)-3-ethylmorpholin-4-yl]-6-(1-methylsulfonylcyclopropyl)pyrimidin-2-yl]phenyl]urea], 9.59 nM.
As for `CCNC(=O)Nc1ccc(-c2nc(N3CCOC[C@@H]3CC)cc(C3(S(C)(=O)=O)CC3)n2)cc1` [Example 84e, 3-ethyl-1-[4-[4-[(3S)-3-ethylmorpholin-4-yl]-6-(1-methylsulfonylcyclopropyl)pyrimidin-2-yl]phenyl]urea], the figure is 8.18 nM; as for `CC[C@H]1COCCN1c1cc(C2(S(C)(=O)=O)CC2)nc(-c2ccc(NC(=O)Nc3cnn(C)c3)cc2)n1` [Example 84f, 1-[4-[4-[(3S)-3-ethylmorpholin-4-yl]-6-(1-methylsulfonylcyclopropyl)pyrimidin-2-yl]phenyl]-3-(1-methylpyrazol-4-yl)urea], 13.4 nM; as for `CNC(=O)Nc1ccc(-c2nc(N3CCOC[C@@H]3C)cc(C3(S(=O)(=O)c4ccc(C(N)=O)cc4Cl)CC3)n2)cc1` [Example 85, 3-Chloro-4-[1-[2-[4-(methylcarbamoylamino)phenyl]-6-[(3S)-3-methylmorpholin-4-yl]pyrimidin-4-yl]cyclopropyl]sulfonylbenzamide], 4.77 nM.
`CCNC(=O)Nc1ccc(-c2nc(N3CCOC[C@@H]3C)cc(C3(S(=O)(=O)c4ccc(C(N)=O)cc4Cl)CC3)n2)cc1` [Example 85a, 3-chloro-4-[1-[2-[4-(ethylcarbamoylamino)phenyl]-6-[(3S)-3-methylmorpholin-4-yl]pyrimidin-4-yl]cyclopropyl]sulfonylbenzamide]: the half-inhibitory concentration (IC50) came to 3.13 nM.
As for `C[C@H]1COCCN1c1cc(C2(S(=O)(=O)c3ccc(C(N)=O)cc3Cl)CC2)nc(-c2ccc(NC(=O)NC3CC3)cc2)n1` [Example 85b, 3-chloro-4-[1-[2-[4-(cyclopropylcarbamoylamino)phenyl]-6-[(3S)-3-methylmorpholin-4-yl]pyrimidin-4-yl]cyclopropyl]sulfonylbenzamide], the figure is 5.26 nM.
In the case of `C[C@H]1COCCN1c1cc(C2(S(=O)(=O)c3ccc(C(N)=O)cc3Cl)CC2)nc(-c2ccc(NC(=O)NCCF)cc2)n1` [Example 85c, 3-chloro-4-[1-[2-[4-(2-fluoroethylcarbamoylamino)phenyl]-6-[(3S)-3-methylmorpholin-4-yl]pyrimidin-4-yl]cyclopropyl]sulfonylbenzamide], the IC50 is 5.09 nM.
As for `C[C@H]1COCCN1c1cc(C2(S(=O)(=O)c3ccc(C(N)=O)cc3Cl)CC2)nc(-c2ccc(NC(=O)NCCO)cc2)n1` [Example 85d, 3-chloro-4-[1-[2-[4-(2-hydroxyethylcarbamoylamino)phenyl]-6-[(3S)-3-methylmorpholin-4-yl]pyrimidin-4-yl]cyclopropyl]sulfonylbenzamide], the IC50 was 3.23 nM.
Next, `CNC(=O)Nc1ccc(-c2nc(N3CCOC[C@@H]3C)cc(C3(S(=O)(=O)c4ccc(C#N)cc4Cl)CC3)n2)cc1` [Example 85e, 1-[4-[4-[1-(2-chloro-4-cyanophenyl)sulfonylcyclopropyl]-6-[(3S)-3-methylmorpholin-4-yl]pyrimidin-2-yl]phenyl]-3-methylurea]: 18.3 nM; `CCNC(=O)Nc1ccc(-c2nc(N3CCOC[C@@H]3C)cc(C3(S(=O)(=O)c4ccc(C#N)cc4Cl)CC3)n2)cc1` [Example 85f, 3-[4-[4-[1-(2-chloro-4-cyanophenyl)sulfonylcyclopropyl]-6-[(3S)-3-methylmorpholin-4-yl]pyrimidin-2-yl]phenyl]-1-ethylurea]: 20.2 nM; `C[C@H]1COCCN1c1cc(C2(S(=O)(=O)c3ccc(C#N)cc3Cl)CC2)nc(-c2ccc(NC(=O)NC3CC3)cc2)n1` [Example 85g, 1-[4-[4-[1-(2-chloro-4-cyanophenyl)sulfonylcyclopropyl]-6-[(3S)-3-methylmorpholin-4-yl]pyrimidin-2-yl]phenyl]-3-cyclopropylurea]: 25.9 nM.
Next, `C[C@H]1COCCN1c1cc(C2(S(=O)(=O)c3ccc(C#N)cc3Cl)CC2)nc(-c2ccc(NC(=O)NCC(F)F)cc2)n1` [Example 85h, 1-[4-[4-[1-(2-chloro-4-cyanophenyl)sulfonylcyclopropyl]-6-[(3S)-3-methylmorpholin-4-yl]pyrimidin-2-yl]phenyl]-3-(2,2-difluoroethyl)urea]: 42.6 nM; `C[C@H]1COCCN1c1cc(C2(S(=O)(=O)c3ccc(C#N)cc3Cl)CC2)nc(-c2ccc(NC(=O)NCCF)cc2)n1` [Example 85i, 1-[4-[4-[1-(2-chloro-4-cyanophenyl)sulfonylcyclopropyl]-6-[(3S)-3-methylmorpholin-4-yl]pyrimidin-2-yl]phenyl]-3-(2-fluoroethyl)urea]: 15.3 nM; `C[C@H]1COCCN1c1cc(C2(S(=O)(=O)c3ccc(C#N)cc3Cl)CC2)nc(-c2ccc(NC(=O)NCCO)cc2)n1` [Example 85j, 1-[4-[4-[1-(2-chloro-4-cyanophenyl)sulfonylcyclopropyl]-6-[(3S)-3-methylmorpholin-4-yl]pyrimidin-2-yl]phenyl]-3-(2-hydroxyethyl)urea]: 12.4 nM.
Next, `CNC(=O)Nc1ccc(-c2nc(N3CCOC[C@@H]3C)cc(C3(S(=O)(=O)c4c(F)cccc4F)CC3)n2)cc1` [Example 86, 1-[4-[4-[1-(2,6-Difluorophenyl)sulfonylcyclopropyl]-6-[(3S)-3-methylmorpholin-4-yl]pyrimidin-2-,yl]phenyl]-3-methylurea]: 2.47 nM; `CCNC(=O)Nc1ccc(-c2nc(N3CCOC[C@@H]3C)cc(C3(S(=O)(=O)c4c(F)cccc4F)CC3)n2)cc1` [Example 86a, 1-[4-[4-[1-(2,6-difluorophenyl)sulfonylcyclopropyl]-6-[(3S)-3-methylmorpholin-4-yl]pyrimidin-2-yl]phenyl]-3-ethylurea]: 5.22 nM.
Turning to `C[C@H]1COCCN1c1cc(C2(S(=O)(=O)c3c(F)cccc3F)CC2)nc(-c2ccc(NC(=O)NC3CC3)cc2)n1` [Example 86b, 3-cyclopropyl-1-[4-[4-[1-(2,6-difluorophenyl)sulfonylcyclopropyl]-6-[(3S)-3-methylmorpholin-4-yl]pyrimidin-2-yl]phenyl]urea], the concentration for half-maximal inhibition (IC50) is 7.25 nM.
Next, `C[C@H]1COCCN1c1cc(C2(S(=O)(=O)c3c(F)cccc3F)CC2)nc(-c2ccc(NC(=O)NCCO)cc2)n1` [Example 86c, 1-[4-[4-[1-(2,6-difluorophenyl)sulfonylcyclopropyl]-6-[(3S)-3-methylmorpholin-4-yl]pyrimidin-2-yl]phenyl]-3-(2-hydroxyethyl)urea]: 2.47 nM.
As for `C[C@H]1COCCN1c1cc(C2(S(=O)(=O)c3c(F)cccc3F)CC2)nc(-c2ccc(NC(=O)NCCF)cc2)n1` [Example 86d, 1-[4-[4-[1-(2,6-difluorophenyl)sulfonylcyclopropyl]-6-[(3S)-3-methylmorpholin-4-yl]pyrimidin-2-yl]phenyl]-3-(2-fluoroethyl)urea], the IC50 worked out at 3.82 nM.
On to `C[C@H]1COCCN1c1cc(C2(S(=O)(=O)c3c(F)cccc3F)CC2)nc(-c2ccc(NC(=O)NCC(F)F)cc2)n1` [Example 86e, 3-(2,2-difluoroethyl)-1-[4-[4-[1-(2,6-difluorophenyl)sulfonylcyclopropyl]-6-[(3S)-3-methylmorpholin-4-yl]pyrimidin-2-yl]phenyl]urea], for which the half-inhibitory concentration (IC50) was found to be 2.23 nM.
As for `C[C@H]1COCCN1c1cc(C2(S(=O)(=O)c3c(F)cccc3F)CC2)nc(-c2ccc(NC(=O)Nc3cnn(C)c3)cc2)n1` [Example 86f, 1-[4-[4-[1-(2,6-difluorophenyl)sulfonylcyclopropyl]-6-[(3S)-3-methylmorpholin-4-yl]pyrimidin-2-yl]phenyl]-3-(1-methylpyrazol-4-yl)urea], the IC50 is 3.45 nM.
As for `CCS(=O)(=O)C1(c2cc(N3CCOC[C@@H]3C)nc(-c3ccc(NC(=O)NCCO)cc3)n2)CCC1` [Example 87, 1-[4-[4-(1-Ethylsulfonylcyclobutyl)-6-[(3S)-3-methylmorpholin-4-yl]pyrimidin-2-yl]phenyl]-3-(2-hydroxyethyl)urea], the figure is 4.87 nM; as for `CCS(=O)(=O)C1(c2cc(N3CCOC[C@@H]3C)nc(-c3ccc(NC(=O)NCc4ncc[nH]4)cc3)n2)CCC1` [Example 87a, 1-[4-[4-(1-ethylsulfonylcyclobutyl)-6-[(3S)-3-methylmorpholin-4-yl]pyrimidin-2-yl]phenyl]-3-(1H-imidazol-2-ylmethyl)urea], 88.7 nM.
